# Counter-ions that a name gives are not always drawn. Like-named read-outs stand apart in the source and are kept apart here.
# What was measured:
# S. aureus ATCC 25923 [1] = experiment: Comparative Example 3: phototoxicity by methods c.1) and c.2); format: cell-based, Staphylococcus aureus; settings: either of the methods c.1) and c.2)
# Procedure: (§1) A 2-hour culture was divided into 1800 μL aliquots. After centrifuging at 20° C., 830 rcf, 5 min (5417R centrifuge, Eppendorf, Hamburg, Germany), the pellets were re-suspended in phosphate buffer (Dulbeccos' Modified Phosphate Saline, DPBS, Sigma-Aldrich) with either 10 or 50 μM of the corresponding photosensitizer, wherein the final volume was kept at 1800 μL.
# (§2) The irradiation was carried out under constant shaking (MTS4, IKA, Staufen, Germany, 175 rpm) from below on a LED array with maximum homogeneity of the lighting surface. All of the controls were shaken in the same manner. The technical data for the light source are shown in Table 2; the total dose of light applied was 33.8 J/cm^2.
# (§3) The determination of the colony forming units (CFU) was carried out in accordance with the method published by Miles and Misra (Miles, A A; Misra, S S, Irwin, J O (1938 Nov.). “The estimation of the bactericidal power of the blood” The Journal of hygiene 38 (6): 732-49). In this regard, serial dilutions (1:10) of the corresponding bacterial suspension were produced in DPBS. 5×10 μL of each bacterial dilution was then dripped onto Todd-Hewitt plates (with broth, additional 1.5% agar (Agar-Agar, Kobe I, Roth, Karlsruhe, Germany) and incubated at 37° C. for 24 h. Next, the number of surviving colony forming units was determined. All of the tests were carried out four times. […]
# E. coli ATCC 25922 [2] = experiment: as above; format: cell-based, Escherichia coli; settings: either of the methods c.1) and c.2)
# Procedure: as §1, §2, §3
# S. aureus ATCC 25923 [3] = experiment: Phototoxicity test c.2) (BlueV light source, emission maximum approx. 420 nm, CFU count); format: cell-based, Staphylococcus aureus; settings: for log reduction at 10 µM / log reduction at 50 µM: Staphylococcus aureus, ATCC25923, light or radiation study, 5 min; for log reduction at 10 µM: read-out: Effectiveness against S. aureus: Reduction in CFU in log10 at concentration of 10 μM; for log reduction at 50 µM: read-out: Effectiveness against S. aureus: Reduction in CFU in log10 at concentration of 50 μM
# Procedure: A sample of the bacterial cell Staphylococcus. aureus (ATCC number: 25923) or Escherichia. coli (ATCC number: 25922) was removed from a cryo-freeze culture and cultured under aerobic conditions at 37° C. and 175 rpm overnight in an orbital shaker (MAXQ4000, Thermo Scientific, Dubuque, Iowa, USA). Growth was carried out in 20 mL Todd-Hewitt broth (Carl Roth, Karlsruhe, Germany) supplemented with 0.3% of yeast extract (AppliChem, Darmstadt, Germany). In a second experiment, the photosensitizers (PS) used were dissolved in Millipore water and adjusted to various concentrations. 25 μL of a bacterial suspension grown overnight ( 108/mL) was incubated with 25 μL of photosensitizer solution of the various concentrations at room temperature for 10 seconds in darkness in a 96-well plate. Next, the suspension was irradiated for 5-20 minutes. For the irradiation, the light source BlueV from […], Germany) was used, which emits light from 380 to 480 nm (emission maximum at approximately 420 nm). The applied energy density was 17.5 mW/cm^2. Each experiment was accompanied by three controls in order to exclude side effect of the irradiation/photosensitizer (PS) on the survival of the bacteria: (i) no PS, only light (=light control), (ii) no light, only PS (=dark control) and (iii) neither light nor PS (=reference control). […] All of the tests were carried out four times. […] All of the remaining PS were tested against S. aureus ATCC 25923 (FIGS. 24-33). FIGS. 21-33 show the logarithmic reduction after illumination with respect to the reference control. […] The irradiation period was 5 minutes (emission maximum at approximately 420 nm) for an applied intensity of 17.5 mW/cm^2, i.e. an applied light energy (dosage) of 5.3 J/cm^2. The average reference control (arithmetic mean with standard deviation) (no light, no PS) was 3.9×10^8/mL. The logarithmic reduction after illumination is shown with respect to the reference control.
# [4] = natural curcumin, background statement; cited from earlier work
# [5] = Comparative Example 3: stability and molar extinction coefficient in aqueous solution; format: physicochemical; settings: comparable with natural curcumin
# Procedure: In a further test, the stability and phototoxicity of the following compounds were tested.
# Incubation with the compound (71) (SACUR-01d) and the bacterial strains S. aureus ATCC 25923 and E. coli ATCC 25922 employed as well as irradiation with electromagnetic radiation and determination of the phototoxicity were carried out as described in sections c.1) and c.2) above. […] The free OH groups contribute greatly to this photo-instability because due to them, the compound can readily transform into the quinoid mesomer, and thus cleavage of one half of the molecule with the formation of ferulic acids or substituted vanillins is facilitated.
# Aqueous solution A: distilled water.
# Aqueous solution B: isotonic sodium chloride solution (0.9% by weight NaCl).
# Aqueous solution C: PBS buffer, pH 7.4 (composition: see Sambrook, J.; Maniatis, T.; Russel, D. W.: Molecular cloning: a laboratory manual. Cold Spring Harbor Laboratory Press; 3rd edition (2001)).
# E. coli ATCC 25922 [6] = experiment: Phototoxicity test c.2) (BlueV light source, emission maximum approx. 420 nm, CFU count); format: cell-based, Escherichia coli; settings: light dose 15.7 J/cm^2, approx. 420 nm, 15 min at 17.5 mW/cm^2, vs reference control
# Procedure: A sample of the bacterial cell Staphylococcus. aureus (ATCC number: 25923) or Escherichia. coli (ATCC number: 25922) was removed from a cryo-freeze culture and cultured under aerobic conditions at 37° C. and 175 rpm overnight in an orbital shaker (MAXQ4000, Thermo Scientific, Dubuque, Iowa, USA). Growth was carried out in 20 mL Todd-Hewitt broth (Carl Roth, Karlsruhe, Germany) supplemented with 0.3% of yeast extract (AppliChem, Darmstadt, Germany).
# In a second experiment, the photosensitizers (PS) used were dissolved in Millipore water and adjusted to various concentrations. 25 μL of a bacterial suspension grown overnight (˜108/mL) was incubated with 25 μL of photosensitizer solution of the various concentrations at room temperature for 10 seconds in darkness in a 96-well plate.
# Next, the suspension was irradiated for 5-20 minutes. For the irradiation, the light source BlueV from Waldmann (Villingen-Schwenningen, Germany) was used, which emits light from 380 to 480 nm (emission maximum at approximately 420 nm). The applied energy density was 17.5 mW/cm^2.
# Each experiment was accompanied by three controls in order to exclude side effect of the irradiation/photosensitizer (PS) on the survival of the bacteria: (i) no PS, only light (=light control), (ii) no light, only PS (=dark control) and (iii) neither light nor PS (=reference control). The determination of the colony forming units (CFU) per mL was also carried out in accordance with the method published by Miles, Misra and Irwin described above in section c.1). All of the tests were carried out four times.
# The photosensitizers (PS) SACUR-01a, SACUR-03 and SACUR-07 were tested against the bacterial strains S. aureus ATCC 25923 and E. coli ATCC 25922 (FIGS. 21-23). All of the remaining PS were tested against S. aureus ATCC 25923 (FIGS. 24-33). FIGS. 21-33 show the logarithmic reduction after illumination with respect to the reference control.
# The average reference control (arithmetic mean with standard deviation) (no light, no PS) was 3.6×10^8/mL for E. coli. The logarithmic reduction after illumination is shown with respect to the reference control.
# [7] = 10 μM, irradiation 5 minutes, approx. 420 nm, 17.5 mW/cm^2, 5.3 J/cm^2, vs reference control
# [8] = 50 μM, irradiation 5 minutes, approx. 420 nm, 17.5 mW/cm^2, 5.3 J/cm^2, vs reference control
# [9] = irradiation 5 minutes, approx. 420 nm, 17.5 mW/cm^2, 5.3 J/cm^2, vs reference control
molecule,measurement,setting,value
"CN(C)c1ccc(/C=C/C2=CC(=C/C=C3C=CC(=[N+](C)C)C=C3)/O[B-](F)(F)O2)cc1 [CRANAD-2, reference compound]",Inactivation of S. aureus ATCC 25923 upon illumination in the presence of the compound,S. aureus ATCC 25923 [1],could not be ascertained
same,Inactivation of E. coli ATCC 25922 upon illumination in the presence of the compound,E. coli ATCC 25922 [2],could not be ascertained
COc1cc(/C=C/C(=O)C(C)C(=O)/C=C/c2ccc(OCCN)c(OCCN)c2)ccc1OCCN (stereo not shown) [Curcumin 13c hydrochloride],log reduction at 10 µM,S. aureus ATCC 25923 [3]; [7],> 1
same,log reduction at 50 µM,S. aureus ATCC 25923 [3]; [8],> 5
"(1E,6E)1,7- bis(4-(2- aminoethoxy)-3- methoxy- phenyl)hepta-1,6- diene-3,5-dione hydrochloride BF2 complex [Curcumin 01a BF-complex]",Effectiveness against S. aureus: Reduction in CFU in log10 at concentration of 10 μM,S. aureus ATCC 25923 [3]; [7],>5 log10
same,Effectiveness against S. aureus: Reduction in CFU in log10 at concentration of 50 μM,S. aureus ATCC 25923 [3]; [8],>5 log10
Cl.Cl.NCCOc1ccc2cc(/C=C/C(=O)CC(=O)/C=C/c3ccc4cc(OCCN)ccc4c3)ccc2c1 [Curcumin 12b hydrochloride],Effectiveness against S. aureus: Reduction in CFU in log10 at concentration of 100 μM,S. aureus ATCC 25923 [3]; [9],~2 log10
same,Effectiveness against S. aureus: Reduction in CFU in log10 at concentration of 250 μM,S. aureus ATCC 25923 [3]; [9],>3 log10
same,log reduction at 50 µM,S. aureus ATCC 25923 [3]; [8],> 1
"COc1cc(C=CC(=O)CC(=O)C=Cc2ccc(O)c(OC)c2)ccc1O [curcumin, 1,7-bis-(4-hydroxy-3-methoxyphenyl)-1,6-heptadiene-3,5-dione]",Solubility in water,[4],low solubility in water
"COc1cc(/C=C/C(=O)CC(=O)/C=C/c2ccc(OCCC[P+](c3ccccc3)(c3ccccc3)c3ccccc3)c(OC)c2)ccc1OCCC[P+](c1ccccc1)(c1ccccc1)c1ccccc1 [Curcumin 15b hydrochloride, 3,3′-(4,4′-((1E,6E)-3,5-dioxohepta-1,6-diene-1,7-diyl)bis(2-methoxy-4,1-phenylene))bis(oxy)bis(triphenylpropan-1-phosphonium) chloride]",log reduction at 10 µM,S. aureus ATCC 25923 [3],> 4
same,log reduction at 50 µM,S. aureus ATCC 25923 [3],> 5
Cl.Cl.NCCOc1ccc(/C=C/C(=O)CC(=O)/C=C/c2ccc(OCCN)c(O)c2)cc1O [Curcumin 01d hydrochloride],Inactivation of S. aureus ATCC 25923 upon illumination in the presence of the compound,S. aureus ATCC 25923 [1],Hardly any inactivation
same,Inactivation of E. coli ATCC 25922 upon illumination in the presence of the compound,E. coli ATCC 25922 [2],Hardly any inactivation
same,Stability in aqueous solution,[5],low stability
COc1cc(/C=C(\C)C(=O)CC(=O)/C(C)=C/c2ccc(OCCN)c(OC)c2)ccc1OCCN.Cl.Cl [Curcumin 14a hydrochloride],Effectiveness against S. aureus: Reduction in CFU in log10 at concentration of 100 μM,S. aureus ATCC 25923 [3]; [9],>2 log10
same,Effectiveness against S. aureus: Reduction in CFU in log10 at concentration of 250 μM,S. aureus ATCC 25923 [3]; [9],>3 log10
same,log reduction at 50 µM,S. aureus ATCC 25923 [3]; [8],> 1
COc1ccc(/C=C/C(=O)C(CCN)C(=O)/C=C/c2ccc(OC)c(OC)c2)cc1OC.Cl [Curcumin 11a hydrochloride],Effectiveness against S. aureus: Reduction in CFU in log10 at concentration of 100 μM,S. aureus ATCC 25923 [3]; [9],>2 log10
same,Effectiveness against S. aureus: Reduction in CFU in log10 at concentration of 250 μM,S. aureus ATCC 25923 [3]; [9],>5 log10
same,log reduction at 50 µM,S. aureus ATCC 25923 [3]; [8],> 1
COc1ccc(/C=C/C(=O)C(CCN)C(=O)/C=C/c2ccc(OC)c(OCCN)c2)cc1OCCN [Curcumin 13a hydrochloride],log reduction at 10 µM,S. aureus ATCC 25923 [3]; [7],> 1
same,log reduction at 50 µM,S. aureus ATCC 25923 [3]; [8],> 5
COc1cc(/C=C/C(=O)C(C)C(=O)/C=C/c2ccc(OCCN)c(OC)c2)ccc1OCCN [Curcumin 09a hydrochloride],log reduction at 10 µM,S. aureus ATCC 25923 [3]; [7],> 2
same,log reduction at 50 µM,S. aureus ATCC 25923 [3]; [8],> 5
"COc1cc(/C=C/C(=O)CC(=O)/C=C/c2ccc(OCCC[P+](C)(C)C)c(OC)c2)ccc1OCCC[P+](C)(C)C [Curcumin 15a hydrochloride, 3,3′-(4,4′-((1E,6E)-3,5-dioxohepta-1,6-diene-1,7-diyl)bis(2-methoxy-4,1-phenylene))bis(oxy)bis(trimethylpropan-1-phosphonium) chloride]",log reduction at 10 µM,S. aureus ATCC 25923 [3]; [7],~1
same,log reduction at 50 µM,S. aureus ATCC 25923 [3]; [8],> 5
CCCCCCCCOc1ccc(/C=C/C(=O)CC(=O)/C=C/c2ccc(OCCCCCCCC)c(OCCN)c2)cc1OCCN.Cl [Curcumin 07 hydrochloride],log reduction at 10 µM,S. aureus ATCC 25923 [3]; [7],> 2
same,log reduction at 50 µM,S. aureus ATCC 25923 [3]; [8],> 5
same,Effectiveness against E. Coli: Reduction in CFU in log10 at concentration of 10 μM,E. coli ATCC 25922 [6]; 10 μM,>1 log10
same,Effectiveness against E. Coli: Reduction in CFU in log10 at concentration of 50 μM,E. coli ATCC 25922 [6]; 50 μM,>4 log10

# Reference: US11191855B2, “1,7-diaryl-1,6-heptadiene-3,5-dione derivatives, methods for the production and use thereof” (UNIVERSITÄTSKLINIKUM REGENSBURG, priority 2015, dated 2021)
